Measured values reported in US7265120B2, “Pyrazine derivatives and pharmaceutical use thereof” (Astellas Pharma Inc., priority 2004, dated 2007).

melting point [°C]	Structure (SMILES)
240 to 241.5	CC(C)n1nc(-c2nc(-n3cncn3)c(N)nc2-c2ccccc2)ccc1=O [Example 151, 6-[5-amino-3-phenyl-6-(1H-1,2,4-triazol-1-yl)-2-pyrazinyl]-2-isopropyl-3(2H)-pyridazinone]
> 250	Cn1nc(-c2nc(-n3ccnc3)c(N)nc2-c2ccccc2)ccc1=O [Example 154, 6-[5-amino-6-(1H-imidazol-1-yl)-3-phenyl-2-pyrazinyl]-2-methyl-3(2H)-pyridazinone]
245.5 to 247	CC(C)n1nc(-c2nc(C#Cc3ccccn3)c(N)nc2-c2ccccc2)ccc1=O [Example 74, 6-[5-amino-3-phenyl-6-(2-pyridylethynyl)-2-pyrazinyl]-2-isopropyl-3(2H)-pyridazinone]
205 to 207.5	CC(C)n1nc(-c2nc(N3CCN4CCCC4C3)c(N)nc2-c2ccccc2)ccc1=O (stereo not shown) [Example 118, 6-[5-amino-6-(hexahydropyrrolo[1,2-a]pyrazin-2(1H)-yl)-3-phenyl-2-pyrazinyl]-2-isopropyl-3(2H)-pyridazinone]
139 to 143	CC(C)n1nc(-c2nc(OCCN3CCOCC3)c(N)nc2-c2ccccc2)ccc1=O [Example 172, 6-{5-amino-6-[2-(4-morpholinyl)ethoxy]-3-phenyl-2-pyrazinyl}-2-isopropyl-3(2H)-pyridazinone]
155 to 157	CC(C)n1nc(-c2nc(N3CCN(C)CC3)c(N)nc2-c2ccccc2)ccc1=O [Example 113, 6-[5-amino-6-(4-methyl-1-piperazinyl)-3-phenyl-2-pyrazinyl]-2-isopropyl-3(2H)-pyridazinone]
224 to 226	CC(C)n1nc(-c2nc(C(N)=O)c(N)nc2-c2ccccc2)ccc1=O [Example 7, 3-amino-6-(1-isopropyl-6-oxo-1,6-dihydro-3-pyridazinyl)-5-phenyl-2-pyrazinecarboxamide]
206 to 208	CC(C)n1nc(-c2nc(NC=O)c(C#N)nc2-c2ccccc2)ccc1=O [Example 25, [3-Cyano-6-(1-isopropyl-6-oxo-1,6-dihydro-3-pyridazinyl)-5-phenyl-2-pyrazinyl]formamide]
> 250	CCn1nc(-c2nc(C#N)c(N)nc2-c2ccccc2)ccc1=O [Example 13, 3-Amino-6-(1-ethyl-6-oxo-1,6-dihydro-3-pyridazinyl)-5-phenyl-2-pyrazinecarbonitrile]
170 to 171	COC(=O)c1nc(-c2ccc(=O)n(C(C)C)n2)c(-c2ccccc2)nc1OC [Example 24, Methyl 6-(1-isopropyl-6-oxo-1,6-dihydro-3-pyridazinyl)-3-methoxy-5-phenyl-2-pyrazinecarboxylate]
233 to 235	CC(C)n1nc(-c2nc(-c3ccoc3)c(N)nc2-c2ccccc2)ccc1=O [Example 81, 6-[5-amino-6-(3-furyl)-3-phenyl-2-pyrazinyl]-2-isopropyl-3(2H)-pyridazinone]
226 to 229	Cn1nc(-c2nc(NCCN3CCOCC3)c(N)nc2-c2ccccc2)ccc1=O [Example 122, 6-(5-amino-6-{[2-(4-morpholinyl)ethyl]amino}-3-phenyl-2-pyrazinyl)-2-methyl-3(2H)-pyridazinone]
147 to 149	CC(=O)NCCNc1nc(-c2ccc(=O)n(C(C)C)n2)c(-c2ccccc2)nc1N [Example 133, N-(2-{[3-amino-6-(1-isopropyl-6-oxo-1,6-dihydro-3-pyridazinyl)-5-phenyl-2-pyrazinyl]amino}ethyl)acetamide]
217 to 220	CC(C)n1nc(-c2nc(N)c(C(N)=O)nc2-c2ccccc2)ccc1=O [Example 29, 3-Amino-5-(1-isopropyl-6-oxo-1,6-dihydro-3-pyridazinyl)-6-phenyl-2-pyrazinecarboxamide]
> 250	CC(C)n1nc(-c2nc(-c3cn[nH]c3)c(N)nc2-c2ccccc2)ccc1=O [Example 90, 6-[5-amino-3-phenyl-6-(1H-pyrazol-4-yl)-2-pyrazinyl]-2-isopropyl-3(2H)-pyridazinone]
208 to 209.5	Cc1nc(-c2ccc(=O)n(C(C)C)n2)c(-c2ccccc2)nc1N [Example 3, 6-(5-amino-6-methyl-3-phenyl-2-pyrazinyl)-2-isopropyl-3(2H)-pyridazinone]
221 to 225	CC(=O)N1CCN(c2nc(-c3ccc(=O)n(C(C)C)n3)c(-c3ccccc3)nc2N)CC1 [Example 117, 6-[6-(4-acetyl-1-piperazinyl)-5-amino-3-phenyl-2-pyrazinyl]-2-isopropyl-3(2H)-pyridazinone]
159.5 to 161	CC(C)n1nc(-c2nc(C#N)c(C#N)nc2-c2ccccc2Br)ccc1=O [Example 195, 5-(2-bromophenyl)-6-(1-isopropyl-6-oxo-1,6-dihydro-3-pyridazinyl)-2,3-pyrazinedicarbonitrile]
208 to 209.5	COCCNc1nc(-c2ccc(=O)n(C(C)C)n2)c(-c2ccccc2)nc1N [Example 102, 6-{5-amino-6-[(2-methoxyethyl)amino]-3-phenyl-2-pyrazinyl}-2-isopropyl-3(2H)-pyridazinone]
250 to 252	COc1ccc(-c2nc(N)c(C(N)=O)nc2-c2ccc(=O)n(C(C)C)n2)cn1 [Example 194, 3-amino-6-(1-isopropyl-6-oxo-1,6-dihydro-3-pyridazinyl)-5-(6-methoxy-3-pyridyl)-2-pyrazinecarboxamide]
183 to 185	Cn1nc(-c2nc(NC3CCN(Cc4ccccc4)C3)c(N)nc2-c2ccccc2)ccc1=O (stereo not shown) [Example 128, 6-{5-amino-6-[(1-benzyl-3-pyrrolidinyl)amino]-3-phenyl-2-pyrazinyl}-2-methyl-3(2H)-pyridazinone]
231 to 233	CC(C)n1nc(-c2nc(C#N)c(N)nc2-c2ccccc2)ccc1=O [Example 6, 3-amino-6-(1-isopropyl-6-oxo-1,6-dihydro-3-pyridazinyl)-5-phenyl-2-pyrazinecarbonitrile]
198 to 200	CC(C)n1nc(-c2nc(O)cnc2-c2ccccc2)ccc1=O [Example 68, 6-(6-hydroxy-3-phenyl-2-pyrazinyl)-2-isopropyl-3(2H)-pyridazinone]
148 to 150.5	CC(C)n1nc(-c2nc(OC3CCN(Cc4ccccc4)CC3)c(N)nc2-c2ccccc2)ccc1=O [Example 178, 6-{5-amino-6-[(1-benzyl-4-piperidinyl)oxy]-3-phenyl-2-pyrazinyl}-2-isopropyl-3(2H)-pyridazinone]
214 to 217	CC(C)n1nc(-c2nc(N)cnc2-c2ccccc2)ccc1=O [Example 50, 6-(6-amino-3-phenyl-2-pyrazinyl)-2-isopropyl-3(2H)-pyridazinone]
238 to 241	CC(C)n1nc(-c2nc(N)c(C#N)nc2-c2ccccc2)ccc1=O [Example 21, 3-Amino-5-(1-isopropyl-6-oxo-1,6-dihydro-3-pyridazinyl)-6-phenyl-2-pyrazinecarbonitrile]
231 to 232.5	COCCNc1nc(-c2ccc(=O)n(C)n2)c(-c2ccccc2)nc1N [Example 120, 6-{5-amino-6-[(2-methoxyethyl)amino]-3-phenyl-2-pyrazinyl}-2-methyl-3(2H)-pyridazinone]
210 to 212	Cn1nc(-c2nc(C#N)c(C#N)nc2-c2ccccc2)ccc1=O [Example 15, 5-(1-Methyl-6-oxo-1,6-dihydro-3-pyridazinyl)-6-phenyl-2,3-pyrazinedicarbonitrile]
